The text below walks through data of US11959083B2, “Immunosuppression-reverting oligonucleotides inhibiting the expression of CD39” (Secarna Pharmaceuticals GmbH & Co. KG, priority 2016, dated 2024).

Holding throughout (assay type): cell-based, human
Data set [1] concerns hCD39 mRNA. The experiment in a line: IC50 determination / concentration-dependent hCD39 mRNA knockdown in HDLM-2 cells. The settings on record: for mRNA inhibition: HDLM-2, 3 days; for IC50: HDLM-2 cells, hCD39 mRNA, 3 days. The protocol:
HDLM-2 cells were treated for 3 days with the indicated concentration of the respective antisense oligonucleotide. Residual hCD39 expression is depicted compared to untreated control cells. hCD39 mRNA expression values were normalized to expression of the housekeeping gene HPRT1.
The antisense oligonucleotide A04040H (SEQ ID No. 3) that had shown potent activity in the first and second screening round was used as reference. HDLM-2 cells treated for 3 days with the indicated concentrations of the respective antisense oligonucleotide. hCD39 mRNA expression values were normalized to expression of the housekeeping gene HPRT1. Residual hCD39 mRNA expression relative to untreated cells (set as 100) is depicted. Depicted is the mean of triplicate wells+/−SD.
In a second experiment the concentration-dependency of effects and the IC50 values of hCD39 antisense oligonucleotides A04010H (SEQ ID No.14), A04016H (SEQ ID No.20), A04017H (SEQ ID No.21), A04020H (SEQ ID No. 24) and A04026H (SEQ ID No.30) were tested. […] HDLM-2 cells were treated with titrated amounts of the respective antisense oligonucleotide (concentrations: 10 μM, 3.3 μM, 1.1 μM, 370 nM, 120 nM, 41 nM, 14 nM, 4.5 nM). hCD39 mRNA expression was analyzed after three days of treatment. FIG. 5 and Table 9 depicts the concentration-dependent reduction of hCD39 mRNA expression by the selected hCD39 antisense oligonucleotides.
The hCD39 antisense oligonucleotides A04051H (SEQ ID No.88), A04052H (SEQ ID No.89), A04053H ([…]), A04056H (SEQ ID No.92), A04059H (SEQ ID No.94), A04060H (SEQ ID No.95), and A04061H (SEQ ID No.96) had shown potent single-dose activity in both HDLM-2 and A-172 cells. […] The antisense oligonucleotide A04040H that had shown potent activity in the first screening round was used as reference. hCD39 mRNA expression was analyzed after 3 days of treatment. FIG. 7 depicts the concentration-dependent reduction of hCD39 expression by hCD39 antisense oligonucleotides.

Data set [2] has as its system hCD39 mRNA. The data set can be described thus: hCD39 mRNA knockdown efficacy screen in HDLM-2 cells (single dose, gymnotic delivery, QuantiGene Singleplex). Set-up: key to Relative hCD39 mRNA expression (compared to non-treated cells): *: values are below detection limit. The settings on record: 10 μM, 3 days; for Residual hCD39 mRNA expression relative to untreated cells (set as 1): third screening round; for Mean hCD39 mRNA expression normalized to HPRT1 relative to untreated control = 1: first screening round; for Relative hCD39 mRNA expression (compared to non-treated cells): second screening round, normalized to HPRT1. The method in brief: (§1)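 Antisense oligonucleotides given once at 10 μM without transfection reagent (gymnotic) to HDLM-2 or A-172 cells for 3 days. hCD39 mRNA measured by QuantiGene Singleplex, normalized to HPRT1 and expressed relative to untreated cells; triplicate means.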

Data set [3] has as its system hCD39 mRNA. The data set can be described thus: hCD39 mRNA knockdown efficacy screen in A-172 cells (single dose, gymnotic delivery, QuantiGene Singleplex). As to conditions: 10 μM, 3 days; for Residual hCD39 mRNA expression relative to untreated cells (set as 1): third screening round; for Mean hCD39 mRNA expression (relative to untreated cells set as 1): first screening round; for Mean hCD39 mRNA expression (relative to untreated cells set as 1) / Relative hCD39 mRNA expression (compared to non-treated cells): normalized to HPRT1; for Relative hCD39 mRNA expression (compared to non-treated cells): second screening round. The method, boiled down: as §1

[4] abbreviates: third screening round (Table 12).
Where [5] appears, read: first screening round (Table 8).

As a reminder, the IC50 is the concentration at which inhibition is half-maximal.

l = locked nucleic acid (LNA); d = 2'-deoxy (DNA)

For “+G*+G*+T*T*T*G*T*G*T*G*A*G*A*G*C*+T*+T (antisense GGTTTGTGTGAGAGCTT; sugars from the 5' end l3 d12 l2, all phosphorothioate, methylation of C not given here) [A04059H]”, the mRNA inhibition in data set [1] (0.45 nM, Table 12) was found to be 1.21%; in data set [1] (1.3 nM, Table 12) it was 0.00%; in data set [1] (4 nM, Table 12), 0.00%; in data set [1] (12 nM, Table 12), 12.94%; in data set [1] (40 nM, Table 12) it was 72.06%; in data set [1] (110 nM, Table 12) it was 91.84%. Also, the mRNA inhibition in data set [1] (330 nM, Table 12) stood at 97.46%; in data set [1] (1000 nM, Table 12), 98.31%. The same substance returned an IC50 in data set [1] (setting [4]) of 18.3 nM. Also, the “Residual hCD39 mRNA expression relative to untreated cells (set as 1)” value is on record as 0.01 in data set [2] and 0.09 in data set [3].
On to “+G*G*+A*C*A*A*T*G*G*T*T*G*+C*+T*+C (antisense GGACAATGGTTGCTC; sugars from the 5' end l1 d1 l1 d9 l3, all phosphorothioate, methylation of C not given here) [A04016H]”, for which the mRNA inhibition in data set [1] (0.0045 μM, Table 9) is given as 18.41%; in data set [1] (0.013 μM, Table 9), 42.19%; in data set [1] (0.04 μM, Table 9), 62.31%; in data set [1] (0.12 μM, Table 9) it was 77.61%; in data set [1] (0.4 μM, Table 9), 90.51%; in data set [1] (1.1 μM, Table 9) it was 96.67%. For the same substance, the mRNA inhibition in data set [1] (3.3 μM, Table 9) was determined as 98.38%; in data set [1] (10 μM, Table 9), 98.94%. Inhibition in data set [1] (second screening round (Table 9)) was half-maximal at 12.8 nM (IC50). Besides, the “Mean hCD39 mRNA expression normalized to HPRT1 relative to untreated control = 1” value in data set [2] stood at 0.10. For the same substance, the entries for the “Relative hCD39 mRNA expression (compared to non-treated cells)” value in data set [2] and in data set [3] were 0.10 and 0.09, respectively. Further, in data set [3], the “Mean hCD39 mRNA expression (relative to untreated cells set as 1)” value worked out at 0.09.
On to “+T*+G*+C*C*A*G*A*G*T*G*C*C*T*G*+A*+T*+C (antisense TGCCAGAGTGCCTGATC; sugars from the 5' end l3 d11 l3, all phosphorothioate, methylation of C not given here) [A04042H]”, for which the mRNA inhibition in data set [1] (0.0045 μM, Table 8) was −20.02%; in data set [1] (0.013 μM, Table 8), −2.65%; in data set [1] (0.04 μM, Table 8), 22.51%; in data set [1] (0.12 μM, Table 8), 32.44%; in data set [1] (0.4 μM, Table 8) it was 58.07%; in data set [1] (1.1 μM, Table 8) it was 76.38%. Further, the mRNA inhibition in data set [1] (3.3 μM, Table 8) turned out to be 87.12%; in data set [1] (10 μM, Table 8) it was 95.87%. Moreover, the midpoint of inhibition in data set [1] (setting [5]), the IC50, lay at 60.9 nM. For the same substance, the “Mean hCD39 mRNA expression normalized to HPRT1 relative to untreated control = 1” value in data set [2] is recorded as 0.10. Also, the figures for the “Relative hCD39 mRNA expression (compared to non-treated cells)” value in data set [2] and in data set [3] were “*” and 0.19, respectively. For the same substance, the “Residual hCD39 mRNA expression relative to untreated cells (set as 1)” value in data set [2] is 0.09; in data set [3], 0.00. Further, the “Mean hCD39 mRNA expression (relative to untreated cells set as 1)” value in data set [3] was 0.37.
On to “+G*+G*+T*T*T*G*T*G*T*G*A*G*A*G*C*+T (antisense GGTTTGTGTGAGAGCT; sugars from the 5' end l3 d12 l1, all phosphorothioate, methylation of C not given here) [A04060H]”, for which the mRNA inhibition in data set [1] (0.45 nM, Table 12) was determined as 0.00%; in data set [1] (1.3 nM, Table 12), 0.00%; in data set [1] (4 nM, Table 12), 0.00%; in data set [1] (12 nM, Table 12), 0.00%; in data set [1] (40 nM, Table 12) it was 49.14%; in data set [1] (110 nM, Table 12) it was 88.34%. Moreover, the mRNA inhibition in data set [1] (330 nM, Table 12) came out at 96.71%; in data set [1] (1000 nM, Table 12), 97.82%. Moreover, inhibition in data set [1] (setting [4]) was half-maximal at 20.5 nM (IC50). Besides, the “Residual hCD39 mRNA expression relative to untreated cells (set as 1)” value in data set [2] came out at 0.01; in data set [3], 0.08.
For “+T*+T*+A*C*G*T*T*C*A*C*T*A*C*C*+T*+T*+C (antisense TTACGTTCACTACCTTC; sugars from the 5' end l3 d11 l3, all phosphorothioate, methylation of C not given here) [A04044H]”, the mRNA inhibition in data set [1] (0.0045 μM, Table 8) amounted to 12.17%; in data set [1] (0.013 μM, Table 8), 26.25%; in data set [1] (0.04 μM, Table 8), 45.88%; in data set [1] (0.12 μM, Table 8), 68.28%; in data set [1] (0.4 μM, Table 8) it was 82.63%; in data set [1] (1.1 μM, Table 8), 91.19%. In addition, the mRNA inhibition in data set [1] (3.3 μM, Table 8) came out at 96.20%; in data set [1] (10 μM, Table 8), 98.71%. In data set [1] (setting [5]), the IC50 was determined as 46.3 nM. Also, the “Mean hCD39 mRNA expression normalized to HPRT1 relative to untreated control = 1” value in data set [2] is 0.05. Moreover, the “Relative hCD39 mRNA expression (compared to non-treated cells)” value was “*” in data set [2] and 0.04 in data set [3]. In addition, the “Mean hCD39 mRNA expression (relative to untreated cells set as 1)” value in data set [3] was 0.07.
For “+T*+A*+C*G*T*T*C*A*C*T*A*C*C*T*+T*C*+T (antisense TACGTTCACTACCTTCT; sugars from the 5' end l3 d11 l1 d1 l1, all phosphorothioate, methylation of C not given here) [A04053H]”, the mRNA inhibition in data set [1] (0.45 nM, Table 12) is on record as 2.07%; in data set [1] (1.3 nM, Table 12) it was 17.51%; in data set [1] (4 nM, Table 12) it was 9.81%; in data set [1] (12 nM, Table 12) it was 26.67%; in data set [1] (40 nM, Table 12), 37.75%; in data set [1] (110 nM, Table 12) it was 66.64%. Further, the mRNA inhibition turned out to be 85.19% in data set [1] (330 nM, Table 12) and 92.69% in data set [1] (1000 nM, Table 12). Besides, the concentration for half-maximal inhibition (IC50) in data set [1] (setting [4]) is 67.6 nM. The “Residual hCD39 mRNA expression relative to untreated cells (set as 1)” value in data set [2] is given as 0.01; in data set [3] it was 0.31.
For “+T*+A*+C*G*T*T*C*A*C*T*A*C*C*T*+T*+C*+T (antisense TACGTTCACTACCTTCT; sugars from the 5' end l3 d11 l3, all phosphorothioate, methylation of C not given here) [A04052H]”, the mRNA inhibition in data set [1] (0.45 nM, Table 12) worked out at 24.52%; in data set [1] (1.3 nM, Table 12), 25.80%; in data set [1] (4 nM, Table 12) it was 9.03%; in data set [1] (12 nM, Table 12), 31.25%; in data set [1] (40 nM, Table 12), 49.21%; in data set [1] (110 nM, Table 12), 75.30%. The mRNA inhibition in data set [1] (330 nM, Table 12) is 88.35%; in data set [1] (1000 nM, Table 12), 94.72%. The same substance yielded an IC50 in data set [1] (setting [4]) of 54 nM. The entries for the “Residual hCD39 mRNA expression relative to untreated cells (set as 1)” value in data set [2] and in data set [3] were 0.00 and 0.25, respectively.
For “+A*+C*C*C*T*G*A*G*T*T*G*T*A*A*C*+T (antisense ACCCTGAGTTGTAACT; sugars from the 5' end l2 d13 l1, all phosphorothioate, methylation of C not given here) [A04033H]”, the mRNA inhibition is 3.05% in data set [1] (0.0045 μM, Table 8); −3.30% in data set [1] (0.013 μM, Table 8); 24.10% in data set [1] (0.04 μM, Table 8); 46.98% in data set [1] (0.12 μM, Table 8); 70.74% in data set [1] (0.4 μM, Table 8); 83.81% in data set [1] (1.1 μM, Table 8). Besides, the mRNA inhibition in data set [1] (3.3 μM, Table 8) was found to be 92.79%; in data set [1] (10 μM, Table 8), 98.02%. This substance gave an IC50 in data set [1] (setting [5]) of 119 nM. In data set [2], the “Mean hCD39 mRNA expression normalized to HPRT1 relative to untreated control = 1” value is 0.10. Moreover, the “Relative hCD39 mRNA expression (compared to non-treated cells)” value in data set [2] is reported as “*”; in data set [3], 0.14. Besides, the “Mean hCD39 mRNA expression (relative to untreated cells set as 1)” value in data set [3] is recorded as 0.28.
